Laboratory results as given in ChEMBL document CHEMBL1201862, “PubChem BioAssay data set” (2004).
Activity calls are given as the source filed them.

Experiments:
[1] = target: T1, Mannose-6-phosphate isomerase (Homo sapiens, UniProt P34949); experiment: inhibitors of human PMI, primary screen, biochemical, fluorescence intensity, coupled assay (AID 1209)
T1 sequence (P34949 whole entry): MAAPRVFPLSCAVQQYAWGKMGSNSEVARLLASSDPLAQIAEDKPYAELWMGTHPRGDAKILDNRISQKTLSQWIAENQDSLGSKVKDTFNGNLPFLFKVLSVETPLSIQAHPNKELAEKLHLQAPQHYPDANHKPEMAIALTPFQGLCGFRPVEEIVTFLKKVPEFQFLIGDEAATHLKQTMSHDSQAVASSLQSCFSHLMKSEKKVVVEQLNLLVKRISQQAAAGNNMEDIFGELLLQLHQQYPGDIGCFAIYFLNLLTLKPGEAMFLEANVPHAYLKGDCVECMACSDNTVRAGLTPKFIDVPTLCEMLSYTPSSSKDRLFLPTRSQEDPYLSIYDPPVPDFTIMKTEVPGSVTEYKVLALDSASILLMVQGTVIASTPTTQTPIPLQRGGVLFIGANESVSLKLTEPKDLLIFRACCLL

[2] = target: Procathepsin L (Homo sapiens, UniProt P07711); experiment: cathepsin L inhibitors, dose response, counter-screen for M1/M17 aminopeptidase inhibitor project, biochemical, QFRET, 1536-well (AID 2214)
Procathepsin L, sequence (P07711 whole entry): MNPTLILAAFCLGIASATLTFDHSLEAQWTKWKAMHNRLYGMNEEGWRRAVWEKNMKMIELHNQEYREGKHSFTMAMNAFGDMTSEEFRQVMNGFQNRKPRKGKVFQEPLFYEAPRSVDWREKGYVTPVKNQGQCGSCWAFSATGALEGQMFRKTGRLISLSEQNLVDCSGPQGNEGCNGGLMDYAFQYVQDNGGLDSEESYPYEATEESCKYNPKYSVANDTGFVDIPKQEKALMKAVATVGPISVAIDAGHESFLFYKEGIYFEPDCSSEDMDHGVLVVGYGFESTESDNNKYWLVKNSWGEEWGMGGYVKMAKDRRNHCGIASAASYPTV

[3] = target: T2, Aspartyl aminopeptidase (Plasmodium falciparum 3D7, UniProt Q8I2J3); experiment: Counterscreen for inhibitors of M1 and M17 aminopeptidases: QFRET-based biochemical high throughput dose response assay for inhibitors of the Plasmodium falciparum M18 Aspartyl Aminopeptidase (PFM18AAP). [Related PubChem assays: 1619 (Screening assay (M17LAP inhibitors).), 1445 (Screening assay (M1AAP inhibitors).)]
T2 sequence (Q8I2J3 whole entry): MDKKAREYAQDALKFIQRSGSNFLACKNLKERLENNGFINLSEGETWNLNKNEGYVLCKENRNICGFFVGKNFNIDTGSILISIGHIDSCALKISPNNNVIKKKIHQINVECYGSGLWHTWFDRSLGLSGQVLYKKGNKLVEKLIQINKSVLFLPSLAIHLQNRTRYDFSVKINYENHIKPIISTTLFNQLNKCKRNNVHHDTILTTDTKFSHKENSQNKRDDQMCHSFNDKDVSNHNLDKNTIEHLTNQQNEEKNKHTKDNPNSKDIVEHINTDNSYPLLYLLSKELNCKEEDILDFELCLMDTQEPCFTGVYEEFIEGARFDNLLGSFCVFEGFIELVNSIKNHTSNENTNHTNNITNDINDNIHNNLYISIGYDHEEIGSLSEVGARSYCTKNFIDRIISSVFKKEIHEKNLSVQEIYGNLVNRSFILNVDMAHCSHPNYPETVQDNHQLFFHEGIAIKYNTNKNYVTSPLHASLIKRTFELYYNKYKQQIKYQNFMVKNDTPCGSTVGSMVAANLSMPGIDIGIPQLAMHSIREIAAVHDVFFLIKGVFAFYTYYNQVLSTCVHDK

[4] = target: T3, Leucine aminopeptidase (Plasmodium falciparum 3D7, UniProt Q8IL11); experiment: P. falciparum M17LAP inhibitors, primary screen, biochemical, fluorogenic H-Leu-NHMec substrate, 1536-well (AID 1619); format: functional
T3 sequence (Q8IL11 whole entry): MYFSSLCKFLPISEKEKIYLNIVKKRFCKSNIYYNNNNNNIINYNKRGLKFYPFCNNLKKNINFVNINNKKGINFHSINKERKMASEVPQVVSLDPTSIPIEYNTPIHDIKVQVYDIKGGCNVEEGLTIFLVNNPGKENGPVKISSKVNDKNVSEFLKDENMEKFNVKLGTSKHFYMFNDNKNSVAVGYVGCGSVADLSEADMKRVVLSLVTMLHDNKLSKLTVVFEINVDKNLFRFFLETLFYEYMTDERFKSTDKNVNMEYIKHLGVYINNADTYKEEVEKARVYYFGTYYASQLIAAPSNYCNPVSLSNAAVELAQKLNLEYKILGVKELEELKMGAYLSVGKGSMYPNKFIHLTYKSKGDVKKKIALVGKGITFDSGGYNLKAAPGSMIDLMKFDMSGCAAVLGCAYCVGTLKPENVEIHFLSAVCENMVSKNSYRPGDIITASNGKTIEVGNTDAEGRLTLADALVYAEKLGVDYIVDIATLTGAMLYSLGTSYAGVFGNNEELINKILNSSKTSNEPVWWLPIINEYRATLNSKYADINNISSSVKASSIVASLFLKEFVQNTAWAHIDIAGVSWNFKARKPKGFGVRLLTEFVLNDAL

[5] = cells
[6] = HEp-2 cell cytotoxicity, dose response, cytotoxicity control for RSV inhibitor project, HTS (AID 2410); format: functional; settings: human respiratory syncytial virus
[7] = target: T4, Estrogen receptor (Homo sapiens, UniProt P03372);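 also: potency for inhibiting coactivator peptide recruitment to the receptor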
T4 sequence (P03372 whole entry): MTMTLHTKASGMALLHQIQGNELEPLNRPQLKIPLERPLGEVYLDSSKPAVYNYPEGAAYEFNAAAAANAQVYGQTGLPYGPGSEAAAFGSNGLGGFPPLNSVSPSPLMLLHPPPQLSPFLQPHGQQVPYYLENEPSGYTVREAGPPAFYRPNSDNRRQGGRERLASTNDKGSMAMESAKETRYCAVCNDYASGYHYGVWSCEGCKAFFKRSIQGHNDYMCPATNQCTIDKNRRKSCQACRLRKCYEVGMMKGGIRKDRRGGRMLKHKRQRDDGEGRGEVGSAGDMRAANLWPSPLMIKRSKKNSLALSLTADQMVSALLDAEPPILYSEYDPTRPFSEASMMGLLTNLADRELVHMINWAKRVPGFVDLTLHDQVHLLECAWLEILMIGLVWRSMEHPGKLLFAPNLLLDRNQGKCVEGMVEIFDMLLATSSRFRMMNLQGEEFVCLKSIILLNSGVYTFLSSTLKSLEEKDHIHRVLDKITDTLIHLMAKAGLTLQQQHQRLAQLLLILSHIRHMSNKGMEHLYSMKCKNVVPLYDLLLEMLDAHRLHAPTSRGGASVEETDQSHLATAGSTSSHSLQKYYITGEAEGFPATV

[8] = system: HT-1080; experiment: cytotoxicity in HT1080 fibrosarcoma cells, cell-based, fluorescence readout (AID 620); format: functional; settings: Homo sapiens

| IC50 [2] | IC50 [3] | IC50 [4] | Structure (SMILES) | further results |
| --- | --- | --- | --- | --- |
|  |  |  | Cn1c(=O)c([N+](=O)[O-])c(Oc2ccccc2)c2ccccc21 | IC50 [1]: > 50 µM (not active) |
| > 59.6 µM (not active) | > 73.5 µM (not active) | 1.45 µM (active) | Cc1ccc(-n2c(C)cc(C(=O)COC(=O)c3ccc[nH]c3=O)c2C)cc1C |  |
| > 59.6 µM (not active) | > 73.5 µM (not active) | 6.42 µM (active) | CC1=C(C)CC(C(=O)Nc2cccc([N+](=O)[O-])c2)C(C(=O)O)C1 (stereo not given) |  |
| > 59.6 µM (not active) | > 73.5 µM (not active) | 2.5 µM (active) | O=C(CSc1nccc(O)n1)Nc1ccc(Br)c(Cl)c1 |  |
|  |  |  | CC(=O)c1ccc2c(c1)C1C=CCC1C(c1ccc(S(=O)(=O)N3CCOCC3)cc1)N2 (stereo not given) | IC50 [5]: 22.5 µM (active); CC50 [6]: 17.2 µM (active) |
|  |  |  | COc1ccc(Cl)cc1NC(=O)c1oc(C)nc1C | IC50 [7]: > 50 µM (not active) |
|  |  |  | N#Cc1nc(-c2ccc(OCc3ccc(Cl)cc3)cc2)oc1NCc1cccnc1 | IC50 [7]: 37.4 µM (not active) |
|  |  |  | O=C(NC1=NC2CCCCC2N1)c1ccccc1 (stereo not given) | EC50 [8]: > 50 µM (not active) |
